In US20200187502A1, “MICROBIOCIDAL OXADIAZOLE DERIVATIVES” (SYNGENTA PARTICIPATIONS AG, priority 2017, published 2020):

What was measured:
[1] = system: Puccinia recondita f. Sp. Tritici; assay: Fungicidal activity, wheat leaf disc preventative (brown rust); format: in vivo; conditions: foliar, 200 ppm in the applied formulation, wheat leaf segments cv. Kanzler, compared to untreated control, 7 to 9 days after application, read-out: disease control
Method in brief: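 Preventative leaf-segment test: spray application of diluted formulated compound on wheat cv. Kanzler, spore inoculation after 1 day. Percent control relative to untreated segments rated 7 to 9 days post-application, with incubation at 19° C, 75% relative humidity, 12 h photoperiod.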

[2] = system: Puccinia recondita f. Sp. Tritici; assay: Fungicidal activity, wheat leaf disc curative (brown rust); format: in vivo; conditions: foliar, 200 ppm in the applied formulation, wheat leaf segments cv. Kanzler, curative (applied 1 day after inoculation), compared to untreated control, 6 to 8 days after application, read-out: disease control
Method in brief: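 Segments of wheat (cultivar Kanzler) sit on agar and are spore-inoculated first; after one day in darkness at 19° C and 75% RH the diluted formulated compound is sprayed on. A 12 h photoperiod follows at the same temperature and humidity before disease is scored against untreated controls.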

Phakopsora pachyrhizi = assay: Fungicidal activity, soybean leaf disc preventative (Asian soybean rust); format: in vivo; conditions: foliar, 200 ppm in the applied formulation, soybean leaf disks, compared to untreated control, 12 to 14 days after application, read-out: disease control
Method in brief: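 Read-out is percent disease control relative to untreated check discs, assessed once untreated discs show adequate disease, 12 to 14 days after application. Compounds, tested at 200 ppm in the applied formulation, are sprayed onto soybean leaf discs one day before inoculation with a spore suspension.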

[3] = system: Glomerella lacenarium (Colletotrichum lacenarium); assay: Fungicidal activity, liquid culture, cucumber preventative (anthracnose); format: cell-based; conditions: 20 ppm in the applied formulation, liquid culture in PDB, inhibition of growth measured photometrically 3 to 4 days after application, compared to untreated control, read-out: disease control
Method in brief: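 Test compound in DMSO is placed in a microtiter plate, then potato dextrose broth containing conidia from cryogenic storage is added. Incubation runs at 24° C., and growth inhibition is read photometrically after 3 to 4 days.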

C#CCNC(=O)N(CC)Cc1ccc(-c2noc(C(F)(F)F)n2)s1 [Compound 4.75, 1-ethyl-3-prop-2-ynyl-1-[[5-[5-(trifluoromethyl)-1,2,4-oxadiazol-3-yl]-2-thienyl]methyl]urea]
≥ 80%: pest or weed control at 200 ppm [1] | pest or weed control at 200 ppm [2] | pest or weed control at 200 ppm (Phakopsora pachyrhizi) | inhibition of growth at 20 ppm [3]

CN(CC#N)C(=O)N(C)Cc1ccc(-c2noc(C(F)(F)F)n2)s1 [Compound 4.76, 1-(cyanomethyl)-1,3-dimethyl-3-[[5-[5-(trifluoromethyl)-1,2,4-oxadiazol-3-yl]-2-thienyl]methyl]urea]
≥ 80%: pest or weed control at 200 ppm [1] | pest or weed control at 200 ppm [2] | pest or weed control at 200 ppm (Phakopsora pachyrhizi) | inhibition of growth at 20 ppm [3]

C=CCN(C)C(=O)N(C)Cc1ccc(-c2noc(C(F)(F)F)n2)s1 [Compound 4.77, 1-allyl-1,3-dimethyl-3-[[5-(5-(trifluoromethyl)-1,2,4-oxadiazol-3-yl]-2-thienyl]methyl]urea]
≥ 80%: pest or weed control at 200 ppm [1] | pest or weed control at 200 ppm [2] | pest or weed control at 200 ppm (Phakopsora pachyrhizi) | inhibition of growth at 20 ppm [3]

COCCNC(=O)N(C)Cc1ccc(-c2noc(C(F)(F)F)n2)s1 [Compound 4.78, 3-(2-methoxyethyl)-1-methyl-1-[[5-[5-(trifluoromethyl)-1,2,4-oxadiazol-3-yl]-2-thienyl]methyl]urea]
≥ 80%: pest or weed control at 200 ppm [1] | pest or weed control at 200 ppm [2] | pest or weed control at 200 ppm (Phakopsora pachyrhizi) | inhibition of growth at 20 ppm [3]

CCN(CC)C(=O)N(C)Cc1ccc(-c2noc(C(F)(F)F)n2)s1 [Compound 4.79, 1,1-diethyl-3-methyl-3-[[5-[5-(trifluoromethyl)-1,2,4-oxadiazol-3-yl]-2-thienyl]methyl]urea]
≥ 80%: pest or weed control at 200 ppm [1] | pest or weed control at 200 ppm [2] | pest or weed control at 200 ppm (Phakopsora pachyrhizi) | inhibition of growth at 20 ppm [3]

C#CCNC(=O)N(C)Cc1ccc(-c2noc(C(F)(F)F)n2)s1 [Compound 4.81, 1-methyl-3-prop-2-ynyl-1-[[5-[5-(trifluoromethyl)-1,2,4-oxadiazol-3-yl]-2-thienyl]methyl]urea]
≥ 80%: pest or weed control at 200 ppm [1] | pest or weed control at 200 ppm [2] | pest or weed control at 200 ppm (Phakopsora pachyrhizi) | inhibition of growth at 20 ppm [3]

CCNC(=O)N(Cc1ccc(-c2noc(C(F)(F)F)n2)s1)C(C)C [Compound 4.83, 3-ethyl-1-isopropyl-1-[[5-[5-(trifluoromethyl)-1,2,4-oxadiazol-3-yl]-2-thienyl]methyl]urea]
≥ 80%: pest or weed control at 200 ppm [1] | pest or weed control at 200 ppm [2] | pest or weed control at 200 ppm (Phakopsora pachyrhizi) | inhibition of growth at 20 ppm [3]

C#CCNC(=O)N(Cc1ccc(-c2noc(C(F)(F)F)n2)s1)C(C)C [Compound 4.85, 1-isopropyl-3-prop-2-ynyl-1-[[5-[5-(trifluoromethyl)-1,2,4-oxadiazol-3-yl]-2-thienyl]methyl]urea]
≥ 80%: pest or weed control at 200 ppm [1] | pest or weed control at 200 ppm [2] | pest or weed control at 200 ppm (Phakopsora pachyrhizi) | inhibition of growth at 20 ppm [3]

CCNC(=O)N(Cc1ccc(-c2noc(C(F)(F)F)n2)s1)C1CC1 [Compound 4.87, 1-cyclopropyl-3-ethyl-1-[[5-[5-(trifluoromethyl)-1,2,4-oxadiazol-3-yl]-2-thienyl]methyl]urea]
≥ 80%: pest or weed control at 200 ppm [1] | pest or weed control at 200 ppm [2] | pest or weed control at 200 ppm (Phakopsora pachyrhizi) | inhibition of growth at 20 ppm [3]

C=CCN(C)C(=O)N(Cc1ccc(-c2noc(C(F)(F)F)n2)s1)C1CC1 [Compound 4.88, 1-allyl-3-cyclopropyl-1-methyl-3-[[5-[5-(trifluoromethyl)-1,2,4-oxadiazol-3-yl]-2-thienyl]methyl]urea]
≥ 80%: pest or weed control at 200 ppm [1] | pest or weed control at 200 ppm [2] | pest or weed control at 200 ppm (Phakopsora pachyrhizi) | inhibition of growth at 20 ppm [3]

COCCNC(=O)N(Cc1ccc(-c2noc(C(F)(F)F)n2)s1)C1CC1 [Compound 4.89, 1-cyclopropyl-3-(2-methoxyethyl)-1-[[5-[5-(trifluoromethyl)-1,2,4-oxadiazol-3-yl]-2-thienyl]methyl]urea]
≥ 80%: pest or weed control at 200 ppm [1] | pest or weed control at 200 ppm [2] | pest or weed control at 200 ppm (Phakopsora pachyrhizi) | inhibition of growth at 20 ppm [3]

C#CCNC(=O)N(Cc1ccc(-c2noc(C(F)(F)F)n2)s1)C1CC1 [Compound 4.92, 1-cyclopropyl-3-prop-2-ynyl-1-[[5-[5-(trifluoromethyl)-1,2,4-oxadiazol-3-yl]-2-thienyl]methyl]urea]
≥ 80%: pest or weed control at 200 ppm [1] | pest or weed control at 200 ppm [2] | pest or weed control at 200 ppm (Phakopsora pachyrhizi) | inhibition of growth at 20 ppm [3]

C#CCNC(=O)N(Cc1ccc(-c2noc(C(F)(F)F)n2)s1)OCC(F)F [Compound 4.93, 1-(2,2-difluoroethoxy)-3-prop-2-ynyl-1-[[5-[5-(trifluoromethyl)-1,2,4-oxadiazol-3-yl]-2-thienyl]methyl]urea]
≥ 80%: pest or weed control at 200 ppm [1] | pest or weed control at 200 ppm [2] | pest or weed control at 200 ppm (Phakopsora pachyrhizi) | inhibition of growth at 20 ppm [3]

CN(Cc1ccc(-c2noc(C(F)(F)F)n2)s1)C(=O)C1CC1 [Compound 5.1, N-methyl-N-[[5-[5-(trifluoromethyl)-1,2,4-oxadiazol-3-yl]-2-thienyl]methyl]cyclopropanecarboxamide]
≥ 80%: pest or weed control at 200 ppm [1] | pest or weed control at 200 ppm [2] | pest or weed control at 200 ppm (Phakopsora pachyrhizi) | inhibition of growth at 20 ppm [3]

O=C(C1CC1)N(Cc1ccc(-c2noc(C(F)(F)F)n2)s1)C1CC1 [Compound 5.2, N-cyclopropyl-N-[[5-[5-(trifluoromethyl)-1,2,4-oxadiazol-3-yl]-2-thienyl]methyl]cyclopropanecarboxamide]
≥ 80%: pest or weed control at 200 ppm [1] | pest or weed control at 200 ppm [2] | pest or weed control at 200 ppm (Phakopsora pachyrhizi) | inhibition of growth at 20 ppm [3]

CCN(Cc1ccc(-c2noc(C(F)(F)F)n2)s1)C(=O)NC1CC1 [Compound 5.3, 3-cyclopropyl-1-ethyl-1-[[5-[5-(trifluoromethyl)-1,2,4-oxadiazol-3-yl]-2-thienyl]methyl]urea]
≥ 80%: pest or weed control at 200 ppm [1] | pest or weed control at 200 ppm [2] | pest or weed control at 200 ppm (Phakopsora pachyrhizi) | inhibition of growth at 20 ppm [3]

CCN(Cc1ccc(-c2noc(C(F)(F)F)n2)s1)C(=O)C1CC1 [Compound 5.4, N-ethyl-N-[[5-[5-(trifluoromethyl)-1,2,4-oxadiazol-3-yl]-2-thienyl]methyl]cyclopropanecarboxamide]
≥ 80%: pest or weed control at 200 ppm [1] | pest or weed control at 200 ppm [2] | pest or weed control at 200 ppm (Phakopsora pachyrhizi) | inhibition of growth at 20 ppm [3]

CC(C)N(Cc1ccc(-c2noc(C(F)(F)F)n2)s1)C(=O)C1CC1 [Compound 5.5, N-isopropyl-N-[[5-[5-(trifluoromethyl)-1,2,4-oxadiazol-3-yl]-2-thienyl]methyl]cyclopropanecarboxamide]
≥ 80%: pest or weed control at 200 ppm [1] | pest or weed control at 200 ppm [2] | pest or weed control at 200 ppm (Phakopsora pachyrhizi) | inhibition of growth at 20 ppm [3]

CN(Cc1ccc(-c2noc(C(F)(F)F)n2)s1)C(=O)NC1CC1 [Compound 5.6, 3-cyclopropyl-1-methyl-1-[[5-[5-(trifluoromethyl)-1,2,4-oxadiazol-3-yl]-2-thienyl]methyl]urea]
≥ 80%: pest or weed control at 200 ppm [1] | pest or weed control at 200 ppm [2] | pest or weed control at 200 ppm (Phakopsora pachyrhizi) | inhibition of growth at 20 ppm [3]

CCN(Cc1ccc(-c2noc(C(F)(F)F)n2)s1)C(=O)C1(C)COC1 [Compound 5.14, N-ethyl-3-methyl-N-[[5-(5-(trifluoromethyl)-1,2,4-oxadiazol-3-yl]-2-thienyl]methyl]oxetane-3-carboxamide]
≥ 80%: pest or weed control at 200 ppm [1] | pest or weed control at 200 ppm [2] | pest or weed control at 200 ppm (Phakopsora pachyrhizi) | inhibition of growth at 20 ppm [3]

CCN(Cc1ccc(-c2noc(C(F)(F)F)n2)s1)C(=O)C1CC1C (centres unmarked) [Compound 5.16, N-ethyl-2-methyl-N-[[5-[5-(trifluoromethyl)-1,2,4-oxadiazol-3-yl]-2-thienyl]methyl]cyclopropanecarboxamide]
≥ 80%: pest or weed control at 200 ppm [1] | pest or weed control at 200 ppm [2] | pest or weed control at 200 ppm (Phakopsora pachyrhizi) | inhibition of growth at 20 ppm [3]

CN(Cc1ccc(-c2noc(C(F)(F)F)n2)s1)C(=O)CC1CC1 [Compound 5.18, 2-cyclopropyl-N-methyl-N-[[5-[5-(trifluoromethyl)-1,2,4-oxadiazol-3-yl]-2-thienyl]methyl]acetamide]
≥ 80%: pest or weed control at 200 ppm [1] | pest or weed control at 200 ppm [2] | pest or weed control at 200 ppm (Phakopsora pachyrhizi) | inhibition of growth at 20 ppm [3]

CN(Cc1ccc(-c2noc(C(F)(F)F)n2)s1)C(=O)C1CCC1 [Compound 5.20, N-methyl-N-[[5-[5-(trifluoromethyl)-1,2,4-oxadiazol-3-yl]-2-thienyl]methyl]cyclobutanecarboxamide]
≥ 80%: pest or weed control at 200 ppm [1] | pest or weed control at 200 ppm [2] | pest or weed control at 200 ppm (Phakopsora pachyrhizi) | inhibition of growth at 20 ppm [3]
